From patent publication US8304539B2, “Fused heteroaryl modulators of glucocorticoid receptor, AP-1, and/or NF-κB activity and use thereof” (Bristol-Myers Squibb Company, priority 2008, dated 2012)

System: AP-1
Test: Cellular transrepression assay (AP-1 luciferase reporter in A549 cells, PMA activated)
Type: cell-based
Conditions: 7 h, 10 ng/ml PMA; for EC50: read-out: AP-1 (EC50, nM) (measured in cellular transrepression assay); for Emax: read-out: AP-1 Max % inhibition (measured in cellular transrepression assay)
Experimental: Cellular Transrepressional Assay
To measure the ability of test molecules to inhibit AP-1 induced transcriptional activity we utilized an A549 cell which was stably transfected with a plasmid containing 7×AP-1 DNA binding sites (pAP-1-Luc plasmid, Stratagene Co. La Jolla, Calif.) followed by the gene for luciferase. Cells were activated with 10 ng/ml of phorbol myristic acid (PMA) plus or minus test molecules for 7 hours. After 7 hours a luciferase reagent was added to measure luciferase enzymatic activity in the cell. After a 10 minute incubation of luciferase reagent with cells, luminescence was measured in a TopCount luminescence counter. Repression of AP-1 activity was calculated as the percentage decrease in the signal induced by PMA alone. Test molecules were analyzed in the concentration range from 0.1 nM to 40 μM. EC50s were determined by using standard curve fitting methods such as Excel fit (Microsoft Co.). An EC50 is the test molecule concentration at which there is a 50% repression of the maximal inhibition of transcription, i.e. a 50% reduction of AP-1 activity.

## Cc1nnc(NC(=O)C(C)(C)C2c3ccc(-c4ccc(C(=O)N(C)C)cc4)nc3Oc3nc(N(C)C)ccc32)s1 (stereo not shown) [Example 68, 4-(8-(dimethylamino)-5-(1,1-dimethyl-2-((5-methyl-1,3,4-thiadiazol-2-yl)amino)-2-oxoethyl)-5H-pyrido[3′,2′:5,6]pyrano[2,3-b]pyridin-2-yl)-N,N-dimethylbenzamide]
  EC50: 95.3 nM
  Emax: 46.3%

## CCN(C)C(=O)c1ccc(-c2ccc3c(n2)Oc2nc(N(C)C)ccc2C3C(C)(C)C(=O)Nc2nnc(C)s2)cc1 (stereo not shown) [Example 71]
  EC50: 67.2 nM
  Emax: 48.6%

## CN(C)c1ccc2c(n1)Oc1nc(-c3ccc(C(=O)N4CCOCC4)cc3)ccc1C2C(C)(C)C(=O)Nc1nncs1 (stereo not shown) [Example 72]
  EC50: 18 nM
  Emax: 48.7%

## CN(C)C(=O)c1ccc(-c2ccc3c(n2)Oc2nc(N(C)C)ccc2C3C(C)(C)C(=O)Nc2nncs2)cc1F (stereo not shown) [Example 73, 4-(8-(dimethylamino)-5-(1,1-dimethyl-2-oxo-2-(1,3,4-thiadiazol-2-ylamino)ethyl)-5H-pyrido[3′,2′:5,6]pyrano[2,3-b]pyridin-2-yl)-2-fluoro-N,N-dimethylbenzamide]
  EC50: 194 nM
  Emax: 43.4%

## CCC(=O)c1ccc(-c2ccc3c(n2)Oc2nc(C)ccc2[C@@H]3C(C)(C)C(=O)Nc2nncs2)cc1 [Example 76]
  EC50: 119 nM
  Emax: 48.5%

## CCN(C)C(=O)c1ccc(-c2ccc3c(n2)Oc2nc(C)ccc2[C@@H]3C(C)(C)C(=O)Nc2nnc(C(=O)NC(C)C)s2)cc1 [Example 86]
  EC50: 183 nM
  Emax: 61.6%

## CCN(C)C(=O)c1ccc(-c2ccc3c(n2)Oc2nc(C)ccc2[C@@H]3C(C)(C)C(=O)Nc2nnc(C(=O)NCC(F)(F)F)s2)cc1 [Example 87]
  EC50: 574 nM
  Emax: 51.7%

## Cc1ccc2c(n1)Oc1nc(-c3ccc(C(=O)N4CCOCC4)cc3)ccc1[C@H]2C(C)(C)C(=O)Nc1nnc(C(=O)NC2CCOCC2)s1 [Example 88, 5-((2-methyl-2-((5S)-2-methyl-8-(4-(4-morpholinylcarbonyl)phenyl)-5H-pyrano[2,3-b:6,5-b′]dipyridin-5-yl)propanoyl)amino)-N-(tetrahydro-2H-pyran-4-yl)-1,3,4-thiadiazole-2-carboxamide]
  EC50: 56.9 nM
  Emax: 32.9%

## Cc1ccc2c(n1)Oc1nc(-c3ccc(C(C)(C)O)cc3)ccc1[C@H]2C(C)(C)C(=O)Nc1nncs1 [Example 89]
  EC50: 21 nM
  Emax: 46.9%

## Cc1ccc2c(n1)Oc1nc(-c3ccc(C(=O)N4CCOCC4)cc3)ccc1[C@H]2C(C)(C)C(=O)Nc1nnc(C2CC2)s1 [Example 93, N-(5-cyclopropyl-1,3,4-thiadiazol-2-yl)-2-methyl-2-((5 S)-2-methyl-8-(4-(4-morpholinylcarbonyl)phenyl)-5H-pyrido[3′,2′:5,6]pyrano[2,3-b]pyridin-5-yl)propanamide]
  EC50: 167 nM
  Emax: 44.3%

## Cc1ccc2c(n1)Oc1nc(-c3ccc(C(=O)N(C)C)cc3)ccc1[C@H]2C(C)(C)C(=O)Nc1nnn(C)n1 [Example 94]
  EC50: 790 nM
  Emax: 35.9%
